In patent US20220233556A1, “COMPOSITIONS AND METHODS FOR TREATING OPHTHALMIC CONDITIONS” (Medicon Pharmaceuticals, Inc., priority 2017, published 2022):
Read-outs that look alike come from different tables or passages of the source.

Key:
NF-κB = NF-κB activation by EMSA in TNF-α-stimulated human conjunctival cells; format: cell-based; details: PS 5 h, then TNF-α 10 ng/ml, EMSA 1 h later
Experimental: FIGS. 6A and 6B illustrate that PS suppresses the activation of NF-κB and MAPKs. In FIG. 6A, NF-κB activation was determined by EMSA in cultured human conjunctival cells stimulated with TNFα (top) and in the ILG of rabbits with Con A-induced DED and treated for one week with either vehicle or PS (bottom). In FIG. 6B, immunoblots detecting the activation of MAPKs by phosphorylation in cultured human conjunctival cells treated with PS at the indicated concentrations for 3.5 h. Loading control: β-actin.
The Mechanism of Action of PS in Dry Eye. Tissue culture, animal and human studies have established inflammation as the core mechanism of DED. To determine the mechanism of action of PS in DED the response to PS of several factors known to play an important role in the inflammation associated with DED was explored. They include NF-κB; the cytokines TGF-β, IL-1β, IL-6 and IL-8; the collagenases MMP-1 and MMP-9; and PGE2. In these studies human conjunctival epithelial cells were used, the Wong-Kilbourne derivative of Chang conjunctival cells (clone 1 to 5c-4l American Type Culture Collection (Manassas, Va.) certified cell line, 20.2).
Human conjunctival cells were treated with various concentrations of PS. Five hours later, TNF-α was added to the culture medium to a final concentration of 10 ng/ml and the status of NF-κB activation was determined by EMSA 1 h later. […]

[1] = test system: ocular inflammation (cataract surgery plus LPS); assay: Ocular inflammation after cataract surgery plus LPS in rabbits; format: in vivo, New Zealand white rabbits; details: PS 3.5% nanoparticles
Experimental: The anti-inflammatory effect of PS in New Zealand white rabbits was evaluated following cataract surgery and administration of the proinflammatory bacterial lipopolysaccharide (LPS). Briefly, the lens was removed by phacoemulsification and aspiration and replaced with the hydrophobic acrylic intraocular lens (AR40e, AMO). Upon completion of the operation, 1 μg of LPS dissolved in 10 μl PBS was injected into the vitreous to induce uveitis.
Rabbits were treated with PS 3.5% formulated in nanoparticles or vehicle (nanoparticles without PS) applied topically as eye drops three times per day. The first application was made within 1 h after completion of surgery. The rabbits were examined daily and the aqueous humor (AH) was sampled by needle aspiration on days 1, 3, and 5 following the injection of LPS. The number of infiltrating cells in the AH was determined following standard methods. On day 5, the rabbits were euthanized and the implanted lens was removed and fixed in 2.5% glutaraldehyde and the number of inflammatory cells attached to the lens was examined under a dissecting microscope.

[2] = PS levels in ocular tissues (HPLC) after topical 3.5% PS Vitamin E TPGS solution; format: in vivo, New Zealand white rabbits; details: New Zealand white, rabbit, 3.5 % PS solution (eye drops)
Experimental: Composition: 3.5% PS; 16% Vitamin E TPGS (d-α-tocopheryl polyethylene glycol 1000 succinate); 3.18% mannitol; 1.2% boric acid; 0.005% polyquaternium-1 (Polyquad). Alternatively, vitamin E TPGS may be replaced by other solubilizing agents. Polyquad is added as a preservative.
Preparation Method: Polyquad and Vitamin E TPGS were dissolved in purified water followed by addition of PS and stirring at 70° C. for 30 min. Then the solution was centrifuged to remove non-dissolved drug particles and the supernatant was collected, to which mannitol and boric acid were added. The final volume was adjusted with purified water after adjusting the pH to 6.7±0.2 with NaOH.
Results: The above PS formulation was administered topically as eye drops to the eyes of New Zealand white rabbits. The levels of PS in ocular tissues 1 h and 3 h later were determined by HPLC.

[3] = Biodistribution of PS in human cadaveric eyes (ex vivo), PS nanoparticle solution; format: in vitro ADME; details: human eye ex vivo
Experimental: Human cadaveric eyes were obtained through the Lions Eye Bank for Long Island, Valley Stream, N.Y. They were preserved on ice and used within 2 h from removal from the donors.
The anterior surface of the human eye (corresponding to an area slightly larger than the palpebral fissure) was brought into direct contact with a PS nanoparticle (NP) solution (PS concentrations were 0.2%, 1% and 2%) and treated as above for the solution formulations of PS. […]

[4] = aqueous humor, read-out: PS in Aqueous humor
[5] = choroid, read-out: PS in Choroid
[6] = conjunctiva, read-out: PS in Conjunctiva

CCOP(=O)(OCC)OCCCCOC(=O)CC1=C(C)/C(=C/c2ccc([S+](C)[O-])cc2)c2ccc(F)cc21 (stereo not drawn) [PS, phosphosulindac]
activation of NF-κB (NF-κB): significantly suppressed | number of inflammatory cells in AH ([1]; day 3, vehicle 24−35×10^4/ml): < 70000 mL⁻¹ | inflammatory cells attached to implanted lens ([1]; day 5): very few or no cells | ocular inflammation (clinical appearance) ([1]; eye drops three times per day, first 24 h): essentially eliminated | concentration at 1 h [2, 4]: 2300 nM | concentration at 3 h [2, 4]: 100 nM | concentration at 1 h [2, 5]: 3200 nM | concentration at 3 h [2, 5]: 200 nM | concentration at 1 h [2, 6]: 9300 nM | concentration at 3 h [2, 6]: 500 nM | concentration at 1 h ([2]; cornea, read-out: PS in Cornea): 6900 nM | concentration at 3 h ([2]; cornea, read-out: PS in Cornea): 800 nM | concentration at 3 h ([2]; iris, read-out: PS in Iris): 900 nM | concentration at 3 h ([2]; lacrimal gland, read-out: PS in Lacrimal gland): 500 nM | concentration at 1 h ([2]; lens, read-out: PS in Lens): 1800 nM | concentration at 3 h ([2]; lens, read-out: PS in Lens): 100 nM | concentration at 1 h ([2]; retina, read-out: PS in Retina): 2700 nM | concentration at 3 h ([2]; retina, read-out: PS in Retina): 200 nM | concentration at 1 h ([2]; sclera, read-out: PS in Sclera): 2300 nM | concentration at 3 h ([2]; sclera, read-out: PS in Sclera): 200 nM | concentration at 1 h ([2]; vitreous body, read-out: PS in Vitreous body): 3600 nM | PS in Cornea ([3]; 0.2% PS-NPs): 22.8 µM | PS in Iris ([3]; 0.2% PS-NPs): 8.0 µM | PS in Lens ([3]; 0.2% PS-NPs): 0.4 µM | PS in Retina ([3]; 0.2% PS-NPs): 2.2 µM | PS in Sclera ([3]; 0.2% PS-NPs): 30.7 µM | PS in Cornea ([3]; 1% PS-NPs): 58.8 µM | PS in Iris ([3]; 1% PS-NPs): 35.5 µM | PS in Lens ([3]; 1% PS-NPs): 1.6 µM | PS in Retina ([3]; 1% PS-NPs): 4.8 µM | PS in Sclera ([3]; 1% PS-NPs): 152.0 µM | PS in Cornea ([3]; 2% PS-NPs): 92.7 µM | PS in Iris ([3]; 2% PS-NPs): 17.4 µM | PS in Lens ([3]; 2% PS-NPs): 0.6 µM | PS in Retina ([3]; 2% PS-NPs): 1.2 µM | PS in Sclera ([3]; 2% PS-NPs): 113.0 µM
